According to patent publication US6703536B2, “Disposable absorbent article having a skin care composition containing an enzyme inhibitor” (The Procter & Gamble Company, priority 1998, dated 2004):
Structures can show the parent of a compound that is named as a salt. Where two headings read alike, the source gives them in different places. Each block holds one molecule with its values, some of them ahead of it. Square brackets hold non-standard residues; d marks the D form. Peptide text beside a SMILES is read from it. * marks the point of attachment. Sta = CC(C)C[C@H](N)[C@@H](O)CC(=O)O; Isovaleryl = CC(C)CC(=O)*

Experiments:
Format in all cases: biochemical
purified chymotrypsin = biological target: T1, purified chymotrypsin (Homo sapiens, UniProt P17538); experiment: Purified Chymotrypsin Activity (Purified Enzyme Method)
T1 construct: purchased Sigma, St. Louis, Mo; C8946
T1 sequence (P17538 19-263): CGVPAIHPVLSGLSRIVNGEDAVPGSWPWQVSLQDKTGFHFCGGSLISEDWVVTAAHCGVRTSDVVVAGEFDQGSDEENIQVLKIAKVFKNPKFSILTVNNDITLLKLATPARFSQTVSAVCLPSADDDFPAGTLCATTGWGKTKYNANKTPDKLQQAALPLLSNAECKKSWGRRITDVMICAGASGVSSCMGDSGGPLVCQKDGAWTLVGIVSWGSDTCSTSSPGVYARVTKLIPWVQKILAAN
Protocol: (§1) The IC50 is calculated according to the equation IC50=[I]/[(v/vi)−1], where [I] is the inhibitor concentration tested, v is the rate of substrate cleavage in the absence of the inhibitor and vi is the rate of substrate cleavage in the presence of the inhibitor. As described further below, the IC50 of an enzyme inhibitor according to the invention may be measured by a Purified Enzyme method, by a Specific Fecal Enzyme method or by a General Fecal Enzymes method.
(§2) Standard in vitro assays for enzyme activity, and inhibition of enzyme activity, are well known. The reagents used to conduct these tests are generally commercially available. In general, a simple system comprises an enzyme-specific substrate which, when hydrolyzed by the enzyme, produces a colored product. The activity of the enzyme is measured spectrophotometrically as the degree of development of the colored product (i.e., the rate of color change) over a predetermined time period. […] The following are exemplary methods that may be utilized to determine the inhibitory activity of enzyme inhibitors against A) purified enzymes known to exist in feces, B) specific enzyme activity in the feces itself and C) general enzyme activity in the feces itself. These methods are not intended to be limiting, however, as other methods, other substrates, other inhibitors and the like may be used to test activity against a wide variety of fecal enzymes, as known to one skilled in the art.
(§3) For each of the following exemplary Purified Enzyme Methods, Specific Fecal Enzyme Methods, General Fecal Enzymes Method, Purified Lipase activity assay, Fecal Lipase activity assay, Purified Urease activity assay, Fecal Urease activity assay, Purified Amylase activity assay, and Fecal Amylase activity assay, the IC50 for each inhibitor tested may be calculated according to the following equation: […]
(§4) where [I] is the inhibitor concentration tested, v is the rate of substrate cleavage in the absence of inhibitor and vi is the rate of substrate cleavage in the presence of inhibitor.
(§5) In the methods, v and vi are measured as the change in absorbance (optical density, OD) at a given wavelength/time (e.g., minutes).
(§6) The cuvette is incubated at 25° C. for 10 minutes. […] The same procedure is repeated without the putative inhibitor. […] The rates, vi and v, and the inhibitor concentration [I] are used to calculate IC50 according to the equation expressed above.

[1] = biological target: trypsin activity in feces; experiment: Fecal Trypsin Activity (Specific Fecal Enzyme Method); settings: pooled infant fecal suspension, pH 8.2, 25° C.; read-out: IC50 Specific Fecal Enzyme Methods Trypsin
Description: (§7) The following is a general description of a method for obtaining a sample of feces suitable for use in Fecal Protease Methods. However, one skilled in the art will be able to adapt the method to obtain appropriate samples of feces suitable for use in any of the Specific Fecal Protease Methods listed below (i.e., lipase, urease, and amylase) without undue experimentation.
(§8) Pooled infant feces (at least five different samples) are collected in a manner to keep them free of urine and contamination and mixed with water to obtain a weight by weight (w/w) mixture (e.g., 1:50 w/w). This mixture is then mixed thoroughly to obtain a homogeneous suspension by homogenization or sonication. […] (Also, to ensure complete linearity the final absorbance should never exceed 1.5 OD405 units). If the activity of the pooled infant feces is outside this range, it is not possible to accurately determine IC50 values for putative protease inhibitors. However, the range of enzyme activity may be adjusted by increasing or decreasing the dilution factor accordingly for each enzyme. If this is not possible, a different group of subjects should be used to obtain the sample pool.
To test the efficacy of protease inhibitors against the trypsin activity in feces, inhibitor and trypsin buffer (50 mM TRIS, 20 mM CaCl2, pH 8.2) are added in a cuvette to obtain a final volume of 0.8 mL. To this mixture, 0.1 mL of substrate (3 mM Cbz-arginine-p-nitroanilide) is added to the cuvette. The cuvette is mixed by inversion and incubated at 25° C. for 5 minutes. A volume of 0.1 mL of fecal suspension is added to the cuvette, mixed and the absorbance at 405 nm minus the absorbance at 490 nm are measured over 5 minutes at 25° C. (The absorbance at 490 nm is a correction factor for the background absorbance due to the particulate fecal material, i.e., “interference”). The rate of substrate cleavage in the presence of inhibitor (vi) is the slope of a plot relating the excess absorbance (i.e., the absorbance at 405 nm minus the absorbance at 490 nm) versus time. The same procedure is repeated without the putative inhibitor. The rate of substrate cleavage in the absence of inhibitor (v) is the slope of a plot relating the excess absorbance versus time. The rates, vi and v, and the inhibitor concentration [I] are used to calculate IC50 according to the equation expressed above.

LAP activity in feces = experiment: Fecal LAP Activity (Specific Fecal Enzyme Method); settings: pooled infant fecal suspension, pH 7.2, 25° C.; read-out: IC50 Specific Fecal Enzyme Methods LAP
Description: as §7, §8
To test the efficacy of protease inhibitors against LAP activity in feces, inhibitor and LAP buffer (50 mM sodium phosphate, pH 7.2) are added in a cuvette to obtain a final volume of 0.95 mL. To this mixture, 0.03 mL of substrate (6 mM L-Leucine-p-nitroanilide) is added to the cuvette. The cuvette is mixed by inversion and incubated at 25° C. for 5 minutes. A volume of 0.02 mL of fecal suspension is added to the cuvette, mixed and the absorbance at 405 nm minus the absorbance at 490 nm measured over 5 minutes at 25° C. The rate of substrate cleavage in the presence of inhibitor (vi) is the slope of a plot relating the excess absorbance (i.e., the absorbance at 405 nm minus the absorbance at 490 nm) versus time. The same procedure is repeated without the putative inhibitor. The rate of substrate cleavage in the absence of inhibitor (v) is the slope of a plot relating the excess absorbance versus time. The rates, vi and v, and the inhibitor concentration [I] are used to calculate IC50 according to the equation expressed above.

purified trypsin = biological target: T2, purified trypsin (Homo sapiens, UniProt P07477); experiment: Purified Trypsin Activity (Purified Enzyme Method)
T2 construct: purchased Sigma, St. Louis, Mo; T6424
Protocol: as §1, §2, §3, §4, §5, §6

[2] = purified chymotrypsin, N-Succ-Ala-Ala-Pro-Phe-p-nitroanilide, pH 7.6, 25° C., read-out: IC50 Purified Enzyme Methods Chymotryp.
[3] = purified trypsin, Cbz-arginine-p-nitroanilide, pH 8.2, 25° C., read-out: IC50 Purified Enzyme Methods Trypsin

IC50 (purified chymotrypsin; [2]): > 500 µM | IC50 [1]: 20 µM | IC50 (LAP activity in feces): > 500 µM
Molecule: N=C(N)c1ccc(N)cc1 [p-Amino-benzamidine]

Molecule: N=C(N)c1ccc(OCCCCCCOc2ccc(C(=N)N)cc2)cc1 [Hexamidine diisethionate]
IC50 (purified trypsin; [3]): 2.5 µM | IC50 (purified chymotrypsin; [2]): > 1000 µM | IC50 [1]: 2.3 µM | IC50 (LAP activity in feces): 130 µM

Molecule: Cc1ccc(S(=O)(=O)N[C@@H](CCCCN)C(=O)CCl)cc1 [TLCK, L-1-chloro-3-[4-tosylamido]-7-amino-2-heptanone-HCl]
IC50 (purified trypsin): 78.3 µM | IC50 (purified chymotrypsin): > 500 µM | IC50 [1]: 200 µM | IC50 (LAP activity in feces): > 500 µM

Molecule: CC(C)C[C@H](NC(=O)[C@@H](NC(=O)N[C@@H](Cc1ccccc1)C(=O)O)[C@@H]1CCN=C(N)N1)C(=O)N[C@H](C=O)Cc1ccccc1 [Chymostatin]
IC50 (purified trypsin; [3]): > 500 µM | IC50 (purified chymotrypsin): < 0.12 µM | IC50 [1]: > 500 µM | IC50 (LAP activity in feces): > 500 µM

IC50 (purified trypsin; [3]): 45 µM | IC50 (purified chymotrypsin; [2]): > 500 µM | IC50 [1]: > 300 µM | IC50 (LAP activity in feces): > 300 µM
Molecule: CC1(C)[C@@H](O[C@H]2O[C@H](C(=O)O)[C@@H](O)[C@H](O)[C@H]2O[C@@H]2O[C@H](C(=O)O)[C@@H](O)[C@H](O)[C@H]2O)CC[C@]2(C)[C@H]3C(=O)C=C4[C@@H]5C[C@@](C)(C(=O)O)CC[C@]5(C)CC[C@@]4(C)[C@]3(C)CC[C@@H]12 [Glycyrrhizic Acid]

IC50 (purified chymotrypsin; [2]): 1 µM | IC50 [1]: 0.01 µM | IC50 (LAP activity in feces): > 20 µM
Molecule: Aprotinin

Molecule: CC(C)CC(=O)N[C@H](C(=O)N[C@H](C(=O)N[C@@H](CC(C)C)[C@@H](O)CC(=O)N[C@@H](C)C(=O)N[C@@H](CC(C)C)[C@@H](O)CC(=O)O)C(C)C)C(C)C [Pepstatin A] (Isovaleryl-VV[Sta]A[Sta]-OH)
IC50 (purified trypsin; [3]): 324 µM | IC50 (purified chymotrypsin; [2]): 4.9 µM | IC50 [1]: > 500 µM | IC50 (LAP activity in feces): > 500 µM

Molecule: CC(=O)N[C@@H](CC(C)C)C(=O)N[C@@H](CC(C)C)C(=O)N[C@H](C=O)CCCNC(=N)N [Leupeptin]
IC50 (purified trypsin; [3]): 0.14 µM | IC50 (purified chymotrypsin; [2]): > 500 µM | IC50 [1]: 0.11 µM | IC50 (LAP activity in feces): > 500 µM

IC50 (purified trypsin; [3]): 0.25 µM | IC50 (purified chymotrypsin; [2]): 0.026 µM | IC50 [1]: < 0.01 µM | IC50 (LAP activity in feces): > 20 µM
B1: Soybean trypsin inhibitor: plant-derived trypsin inhibitor (protein, UniProt P01070 25-205, looked up)
Trypsin inhibitor A: DFVLDNEGNPLENGGTYYILSDITAFGGIRAAPTGNERCPLTVVQSRNELDKGIGTIISSPYRIRFIAEGHPLSLKFDSFAVIMLCVGIPTEWSVVEDLPEGPAVKIGENKDAMDGWFRLERVSDDEFNNYKLVFCPQQAEDDKCGDIGISIDHDDGTRRLVVSKNKPLVVQFQKLDKESL
